{"source": "the NIST ThermoML archive (doi:10.1021/acs.jced.9b00375)", "key": {"[1]": {"conditions": "298.15 K; 101.3 kPa; Liquid; Vibrating tube method"}, "[2]": {"test": "wn = mass fraction of the nth substance listed", "conditions": "298.15 K, 101.3 kPa, Liquid, Vibrating tube method"}}, "note": "± gives the expanded uncertainty stated by the source.", "data": [{"smiles": "NCCO.O=CO", "note": "[2-hydroxyethylammonium formate]", "values": [{"measurement": "mass density", "setting": "[1]", "result": "1215 ± 16", "unit": "kg/m3"}]}, {"smiles": "NCCO.O=CO", "note": "[2-hydroxyethylammonium formate] + CCCCC", "values": [{"measurement": "mass density", "setting": "[2]; w2 = 0.9491", "result": "625.1 ± 16", "unit": "kg/m3"}]}, {"smiles": "NCCO.O=CO", "note": "[2-hydroxyethylammonium formate] + CCCCCC", "values": [{"measurement": "mass density", "setting": "[2]; w2 = 0.0028", "result": "1182.7 ± 16", "unit": "kg/m3"}, {"measurement": "mass density", "setting": "[2]; w2 = 0.0063", "result": "1194.1 ± 16", "unit": "kg/m3"}, {"measurement": "mass density", "setting": "[2]; w2 = 0.997", "result": "655.6 ± 16", "unit": "kg/m3"}, {"measurement": "mass density", "setting": "[2]; w2 = 0.9982", "result": "663.6 ± 16", "unit": "kg/m3"}]}, {"smiles": "NCCO.O=CO", "note": "[2-hydroxyethylammonium formate] + CCCCCCC", "values": [{"measurement": "mass density", "setting": "[2]; w2 = 0.0045", "result": "1183 ± 16", "unit": "kg/m3"}, {"measurement": "mass density", "setting": "[2]; w2 = 0.9989", "result": "680 ± 16", "unit": "kg/m3"}]}, {"smiles": "NCCO.O=CO", "note": "[2-hydroxyethylammonium formate] + CCCCCCCC", "values": [{"measurement": "mass density", "setting": "[2]; w2 = 0.0035", "result": "1192.6 ± 16", "unit": "kg/m3"}, {"measurement": "mass density", "setting": "[2]; w2 = 0.9955", "result": "699.5 ± 16", "unit": "kg/m3"}, {"measurement": "mass density", "setting": "[2]; w2 = 0.9971", "result": "699.7 ± 16", "unit": "kg/m3"}]}, {"smiles": "CCO", "note": "[ethanol]", "values": [{"measurement": "mass density", "setting": "[1]", "result": "785.7 ± 16", "unit": "kg/m3"}]}, {"smiles": "CCCCCCC", "note": "[heptane]", "values": [{"measurement": "mass density", "setting": "[1]", "result": "679 ± 16", "unit": "kg/m3"}]}, {"smiles": "CCCCCC", "note": "[hexane]", "values": [{"measurement": "mass density", "setting": "[1]", "result": "668 ± 16", "unit": "kg/m3"}]}, {"smiles": "CO", "note": "[methanol]", "values": [{"measurement": "mass density", "setting": "[1]", "result": "786.7 ± 16", "unit": "kg/m3"}]}, {"smiles": "CCCCCCCC", "note": "[octane]", "values": [{"measurement": "mass density", "setting": "[1]", "result": "698.7 ± 16", "unit": "kg/m3"}]}, {"smiles": "CCCCC", "note": "[pentane]", "values": [{"measurement": "mass density", "setting": "[1]", "result": "621.3 ± 16", "unit": "kg/m3"}]}]}
